Measurements from patent publication US5811073A, “Method for radioisotopic detection and localization of inflammation in a host” (President and Fellows of Harvard College, priority 1995, dated 1998).

Tests used:
[1] = system: bacterial (E. coli) inflammatory lesions (pus capsule); test: Gamma camera imaging of rats with bacterial infection; type: in vivo; set-up: key to Figure of Merit (FOM), equation (1): FOM=(At-Ab)^2/(At+Ab), from total counts target vs background; conditions: i.v.; for Figure of Merit (FOM), equation (1): 0.2 mCi ^67 Ga-citrate (n=3); for Figure of Merit (FOM), equation (1) / Pus Capsule to Contralateral Tissue (T/B) Ratio, gamma camera imaging: 1.5 mCi/rat ^123 IUdR (n=4); for Figure of Merit (FOM), equation (1) / Pus Capsule to Contralateral Tissue (T/B) Ratio, gamma camera imaging / Figure of Merit (FOM), equation (2): mean ± SD; for Pus Capsule to Contralateral Tissue (T/B) Ratio, gamma camera imaging: 0.2 mCi/rat ^67 Ga (n=3); for Figure of Merit (FOM), equation (2): n=3 (^67 Ga), n=4 (^123 IUdR)
Description: A frozen sample of E. coli bacteria (clinical isolate; ATCC 9339) was used to inoculate a 10 ml trypticase soy medium (trypticase soy broth, BBL #11768, 30 g/L water), and the tube was incubated overnight at […] This culture was used to grow single colonies by streaking the sample on agar plates (100 mm petri dishes each containing 15 ml of […] in the same medium). Good colonies develop in 10-11 hours at 37° C. The agar plates containing bacterial colonies were stored upside down at 4° C. A single colony of bacteria from the agar plate was used to inoculate 10 ml trypticase soy medium, and the tube was incubated overnight at 37° C. with vigorous shaking. Two ml of this overnight culture was transferred into 100 ml trypticase soy medium and the sample incubated at 37° C. with vigorous shaking until the culture reached an OD600 of ~0.8 (in about 2 hrs). This 100 ml culture contained ~6.4×10^10 bacterial cells (1 OD600 =8×10^8 cells/ml).
The culture was centrifuged at 5500 rpm for 5 min at 4° C. in a Sorvall SS-34 rotor, the bacterial pellet resuspended in saline to give ~2.5×10^9 bacteria/ml, and 0.1 ml of resuspended cells injected into the left thigh muscle of each anesthetized rat.
(§1) A further set of rats prepared as described in Examples 1 and 2 received intravenous injections of either ^123 IUdR (at a dose of about 1.5 mCi/rat) or gallium-67 citrate (at a dose of about 0.2 mCi/rat). After 1, 3 and 24 hours, rats from each group were anesthetized and imaged using a gamma camera (the General Electric STARCAM™ 400 fitted with parallel hole medium collimator). Anterior images were obtained 10^6 counts/frame except for the 24 h period for ^123 IUdR where a 15 min scan was carried out. A 20% window was present over the 159 keV photopeaks of ^67 Ga (93 kev, 184 keV, and 298 keV).
(§2) Regions of interest (ROI) were drawn over the inflamed areas (3×4 pixel) and over the contralateral area in each rat. Total counts in these regions were used to calculate Target to Background (T/B) ratios and to calculate Figure of Merit (FOM; statistical significance) values using either of the following equations:
(§3) FOM=(At -Ab)^2 /(At +Ab) (1)
(§4) At =counts in ROI (3×4) over pus capsule; and
(§5) Ab =counts in ROI (3×4) over contralateral muscle.
(§6) Equation (1) is derived from the Report of the National Council on Radiation Protection and Measurements, Nuclear Medicine, "Factors Influencing the Choice and Use of Radionuclides in Diagnosis and Therapy", Report No. 70, p.79 (NRCP, Bethesda, Md., 1982). Equation (2) is derived from Rubin et al., J. Nucl. Med. 30:385-389, 1989. For purposes of reference, the disclosures of each of these publications is incorporated herein.

[2] = Total photon efficiency of gamma camera; type: physicochemical
Description: For use in calculating dosages, the relative photon efficiencies of ^123 IUdR and of gallium-67 were determined.
Total Photon Efficiency of Gamma Camera
With Respect to ^123 IUdR and gallium-67
keV* Frequency X Efficiency

[3] = system: sterile inflammatory lesions (pus capsule; turpentine oil); test: Biodistribution (pus capsule to contralateral tissue ratio) in rats with sterile inflammation; conditions: for Pus Capsule and Contralateral Tissue (T/B) Ratio, biodistribution: sterile inflammation, i.v., 10 μCi/rat ^67 Ga (n=2), 5 μCi/rat ^125 IUdR (n=6), mean ± SD
[4] = intravenous; adult man; ^123 I-iodine thyroid blocked; cited from earlier work
[5] = system: sterile inflammatory lesions (pus capsule; turpentine oil); test: Gamma camera imaging of rats with sterile inflammation; type: in vivo, Male Sprague-Dawley rats; conditions: for Figure of Merit (FOM), equation (1): 0.2 mCi ^67 Ga-citrate; for Figure of Merit (FOM), equation (1) / Pus Capsule to Contralateral Tissue (T/B) Ratio, gamma camera imaging: 1.5 mCi/rat ^123 IUdR; for Figure of Merit (FOM), equation (1) / Pus Capsule to Contralateral Tissue (T/B) Ratio, gamma camera imaging / Figure of Merit (FOM), equation (2): n=4, mean ± SD; for Pus Capsule to Contralateral Tissue (T/B) Ratio, gamma camera imaging: 0.2 mCi/rat ^67 Ga
Description: Male Sprague-Dawley rats weighing between 150-200g were obtained from the Charles River Breeding Laboratories in Burlington, Mass. […] To anaesthetize the animals during testing, ketamine (40 mg/kg) and xylazine (10 mg/kg) were administered intra peritoneally (1.0 ml/kg) prior to surgical procedures. For the imaging studies, each animal received 1.5 ml/kg of a mixture of ketamine (75 mg/kg), xylazine (39 mg/kg) and acepromazine (0.75 mg/kg).
To induce a localized sterile inflammation, 0.1 ml of turpentine oil (Rectified Turpentine Oil for medical use, Gentry Corporation, Fair Lawn, N.J.) was injected into the left thigh muscle of anesthetized rats.
as §1, §2, §3, §4, §5, §6

[6] = system: sterile and bacterial inflammation; conditions: i.v., 200-300 μCi gallium-67 citrate, 300-500 μCi ^99m Tc-human serum albumin, 100-150 μCi ^111 In-IgG or ^125 I-IgG; cited from earlier work

In the case of `O=C([O-])CC(O)(CC(=O)[O-])C(=O)[O-].[67Ga+3]` [^67 Ga, gallium-67 citrate], the “detection of the lesion in scintigraphic images (in words)” value ([1]; 1, 3, and 24 h) was “can clearly detect the lesion”, the “Figure of Merit (FOM), equation (1)” value ([1]; 1 h) was 49 ± 60 and the “Pus Capsule to Contralateral Tissue (T/B) Ratio, gamma camera imaging” value (from here on “Pus Capsule … (T/B) Ratio, gamma camera imaging”) ([1]; 1 h) was 1.26 ± 0.09. The “Figure of Merit (FOM), equation (2)” value ([1]; 1 h) was 0.26 ± 0.11, the “Figure of Merit (FOM), equation (1)” value ([1]; 3 h) was 306 ± 210 and the “Pus Capsule … (T/B) Ratio, gamma camera imaging” value ([1]; 3 h) was 2.01 ± 0.24. The “Figure of Merit (FOM), equation (2)” value ([1]; 3 h) was 1.01 ± 0.29, the “Figure of Merit (FOM), equation (1)” value ([1]; 24 h) was 231 ± 135 and the “Pus Capsule … (T/B) Ratio, gamma camera imaging” value ([1]; 24 h) was 1.91 ± 0.15. The “Figure of Merit (FOM), equation (2)” value ([1]; 24 h) was 0.90 ± 0.21, the “Total Photon Efficiency” value ([2]; 91.3 keV) was 0.0296 and the “Total Photon Efficiency” value ([2]; 93.3 keV) was 0.37. The “Total Photon Efficiency” value ([2]; 184.6 keV) was 0.1326, the “Total Photon Efficiency” value ([2]; 209 keV) was 0.01515 and the “Total Photon Efficiency” value ([2]; 300.2 keV) was 0.0415. For the same molecule, the “Total Photon Efficiency” value ([2]; sum over photopeaks (^67 Ga), 159 keV (^123 I)) was 0.59, the “concentration within lesion (pus capsule) vs contralateral tissues (in words)” value ([3]; sterile inflammation (turpentine oil)) was “to a greater extent than in the contralateral tissues” and the “Pus Capsule and Contralateral Tissue (T/B) Ratio, biodistribution” value ([3]; 3 h) was 3.55 ± 0.24. For the same molecule, the “Pus Capsule and Contralateral Tissue (T/B) Ratio, biodistribution” value ([3]; 24 h) was 2.85 ± 0.64, the “whole body effective dose” value [4] was 0.44 rad/mCi and the “detection of the lesion in scintigraphic images (in words)” value ([5]; 1, 3, and 24 h, i.v.) was “can clearly detect the lesion”. For the same molecule, the “Figure of Merit (FOM), equation (1)” value ([5]; 1 h, i.v.) was 1037 ± 215, the “Pus Capsule … (T/B) Ratio, gamma camera imaging” value ([5]; 1 h, i.v.) was 2.76 ± 0.18 and the “Figure of Merit (FOM), equation (2)” value ([5]; 1 h, i.v.) was 1.75 ± 0.2. The “Figure of Merit (FOM), equation (1)” value ([5]; 3 h, i.v.) was 1581 ± 143, the “Pus Capsule … (T/B) Ratio, gamma camera imaging” value ([5]; 3 h, i.v.) was 3.61 ± 0.15 and the “Figure of Merit (FOM), equation (2)” value ([5]; 3 h, i.v.) was 2.61 ± 0.18. For the same molecule, the “efficacy by imaging T/B ratio, comparison of agents (in words)” value ([5]; 3 hrs) was “equal”, the “Figure of Merit (FOM), equation (1)” value ([5]; 24 h, i.v.) was 1958 ± 149 and the “Pus Capsule … (T/B) Ratio, gamma camera imaging” value ([5]; 24 h, i.v.) was 5.09 ± 0.44. The “Figure of Merit (FOM), equation (2)” value ([5]; 24 h, i.v.) was 4.09 ± 0.50, the “imaging T/B ratios, comparison of agents (in words)” value ([5]; by 24 hrs) was “higher T/B ratios” and the “FOM values, comparison of agents (in words)” value ([5]; later time points (3 hrs and 24 hrs)) was “equal or higher FOM values”. For the same molecule, the “time of maximum target to background tissue ratio for image intensity” value [6] was 3 h.
